Here are results for 1 compound from publication PMC7522982, “PKIS deep dive yields a chemical starting point for dark kinases and a cell active BRSK2 inhibitor” (Scientific Reports, 2020).

For experiment [1], the system named is panel of 224 recombinant kinases. The arrangement: method as in PMID 26501955. Conditions: Nanosyn; cited from earlier work.
In experiment [2] the test system is BRSK2-induced phosphorylation. Description: Western blot of BRSK2-induced phosphorylation in HEK293T cells. The class given is cell-based. An excerpt:
With confirmed cellular activity, we next focused on characterizing the pathways mediated by BRSK2 utilizing GW296115. BRSK2 has a similar kinase domain to AMPK and is activated by LKB1-mediated phosphorylation in the active site at T174[24]–[26]. As previously reported, BRSK2 induces phosphorylation of AMPK substrates. Therefore, we asked whether this BRSK2-induced phosphorylation of AMPK substrates is ablated by GW296115. First, we evaluated the effect of GW296115 on AMPK substrate phosphorylation in HEK293T cells overexpressing wild-type or kinase-dead BRSK2 (Fig. 3B). Specifically, we overexpressed two different kinase-dead BRSK2 constructs, K48A and T174A, and treated cells with 2.5 μM of GW296115 for 2 or 6 h. Compared to cells expressing hcRED control, wild-type BRSK2 overexpression induced AMPK substrate phosphorylation, as measured by phospho-S/T AMPK substrate antibody. This change was not observed when overexpressing kinase-dead variants. BRSK2-induced AMPK substrate phosphorylation was ablated with GW269115 treatment at both 2- and 6-h time-points.
Next we evaluated whether specific bona fide AMPK substrates were phosphorylated by BRSK2. Based on the total pS/T AMPK substrate blots, we decided to check known substrates that match the size of the most robust changes due to BRSK2 overexpression. UNC51-like kinase 1 (ULK1) is a 120 kDa kinase that is member of the autophagy initiation complex, and is phosphorylated by AMPK at multiple residues, S317 and S555, among others[27]–[29]. Therefore, we overexpressed wild type BRSK2 in HEK293T cells and measured changes in pULK1 S317 and S555 following treatment with increasing doses of GW296115 for 2 h. BRSK2 overexpression increased phosphorylation of ULK1 at S317, but not S555. […] However, in samples expressing control hcRED, treatment with GW296115 increased pAMPK T172. We also asked if activating phosphorylation of ULK1 leads to increased phosphorylation of downstream components of the autophagy complex. Therefore we evaluated phosphorylation of S351 on P62 (SQSTM1), which is a stress induced autophagy receptor for ubiquitylated cargo[30]. Due to its central role as a signaling hub, P62 accumulation and phosphorylation serves as a sensor for starvation, oxidative stress, and selective autophagy[30]–[32]. […] Moreover, these phosphorylation events were ablated by GW296115 in a dose dependent manner (Fig. 4B,C).
Western blots were carried out as described previously. HEK293T cells were plated in 6-well format and incubated at 37 °C with 5% CO2 for 12 h. Next, cells were transfected with 1.5 ug of plasmid per well for 24 h and treated with GW296115 (in DMSO). Samples were lysed using standard conditions of RIPA (10% glycerol, 50 mM Tris–HCL, 100 mM NaCl, 2 mM EDTA, 0.1% SDS, 1% Nonidet P-40, and 0.2% Sodium Deoxycholate) supplemented with protease inhibitor cocktail (ThermoFisher Scientific, 78429), phosphatase inhibitor cocktail (ThermoFisher Scientific, 78426), NEM (Thermo Scientific, 23030), and Benzonase (Sigma, E1014). Lysis was carried out on ice over the course of 30 min and resultant lysates were centrifuged at 4 °C for 15 min at 21,000×g. Following normalization of protein concentration via BCA (Pierce, 23225), samples were denatured in NuPAGE LDS buffer (Invitrogen, NP0007) plus 1 mM DTT. Blots were imaged with a LiCor Odyssey imager, and then quantified using ImageStudio 5.2. Finally, ANOVA with multiple comparison was performed for quantitated blots using Prism 8.2.4.

For experiment [3], the system named is GAK. Also on record: method as in earlier work. The note with it: cited from earlier work.
In experiment [4] the test system is PRKAA2. The arrangement: method as in earlier work. The note with it: cited from earlier work.
The mark [5] stands for this setting: HEK293T overexpressing wild type BRSK2, increasing doses for 2 h.

`COc1ccc2[nH]c3c4[nH]c5ccc(OC)cc5c4c4c(c3c2c1)C(=O)NC4=O` [GW296115]: in experiment [1], the “inhibition at 100 nM of the 3 kinases inhibited > 90% at 1 μM” value is over 70%. Besides, in experiment [2] (setting [5]), the “BRSK2-induced phosphorylation of ULK1 S317” value was “decreased dose-dependently” and the “pP62 S351 following BRSK2 overexpression” value was “dose dependently downregulated”. The “BRSK2-induced AMPK substrate phosphorylation (phospho-S/T AMPK substrate antibody)” value in experiment [2] (HEK293T overexpressing wild-type BRSK2, 2.5 μM for 2 or 6 h) is reported as “ablated”. Moreover, the “phosphorylation of BRSK2 at T174” value in experiment [2] (HEK293T overexpressing wild-type or K48A BRSK2) is “hyper-phosphorylated”. Besides, the “phosphorylation at the LKB1 target site (T172) on AMPK” value in experiment [2] (HEK293T, 2.5 μM for 2 or 6 h) was “did not inhibit”. The “TSA ΔTm at 10 μM (°C)” value in experiment [3] is 8.4 °C. The “TSA ΔTm at 10 μM (°C)” value in experiment [4] was 10.6 °C.
